According to patent publication US10533010B2, “Substituted indole Mcl-1 inhibitors” (Vanderbilt University, priority 2014, dated 2020):
Read-outs that look alike come from different tables or passages of the source.

Target: recombinant Mcl-1 (residues 172-327) (Homo sapiens (Human), UniProt Q07820)
Experiment: Fluorescence polarization anisotropy competition assay (FITC-Bak or FITC-Bim BH3 peptide) with Mcl-1
Type: binding
Details: Table 2, FITC-Bak or FITC-Bim peptide competition, Ki converted from IC50, read-out: Ki for Inhibition of Mcl-1

Chain of recombinant Mcl-1 (residues 172-327) (Q07820 172-327): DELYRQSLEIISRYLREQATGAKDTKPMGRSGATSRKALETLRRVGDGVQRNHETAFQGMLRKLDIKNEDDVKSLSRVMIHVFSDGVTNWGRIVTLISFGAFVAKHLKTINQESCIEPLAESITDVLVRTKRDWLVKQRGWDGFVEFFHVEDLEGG

Row | Structure (SMILES) | Ki (Ki bins given in nM) | Ki (Ki bins given in μM)
1 | Cc1cc(OCCCc2c3n(c4c(-c5c(C)nn(CC(=O)O)c5C)c(Cl)ccc24)CCCNC3=O)cc(C)c1Cl [I-295, 2-(4-(8-chloro-11-(3-(4-chloro-3,5-dimethylphenoxy)propyl)-1-oxo-2,3,4,5-tetrahydro-1H-[1,4]diazepino[1,2-a]indol-7-yl)-3,5-dimethyl-1H-pyrazol-1-yl)acetic acid] | < 50 nM | –
2 | Cc1cc(OCCCc2c3n(c4c(-c5c(C)nn(C)c5C)c(Cl)ccc24)CCCN(c2cccc(C#N)c2)C3=O)cc(C)c1Cl [I-353, 3-(8-chloro-11-(3-(4-chloro-3,5-dimethylphenoxy)propyl)-1-oxo-7-(1,3,5-trimethyl-1H-pyrazol-4-yl)-4,5-dihydro-1H-[1,4]diazepino[1,2-a]indol-2(3H)-yl)benzonitrile] | 51 to 100 nM | –
3 | Cc1cc(OCCCc2c3n(c4c(-c5c(C)nn(C)c5C)c(Cl)ccc24)C(C)[C@@H](C)N(c2ccc(C(=O)O)c4ncccc24)C3=O)cc(C)c1Cl (stereo partly drawn) [I-164, 5-((3R)-7-chloro-10-(3-(4-chloro-3,5-dimethylphenoxy)propyl)-3,4-dimethyl-1-oxo-6-(1,3,5-trimethyl-1H-pyrazol-4-yl)-3,4-dihydropyrazino[1,2-a]indol-2(1H)-yl)quinoline-8-carboxylic acid] | 51 to 100 nM | –
4 | Cc1cc(OCCCc2c3n(c4c(-c5c(C)nn(C)c5C)c(Cl)ccc24)C[C@@H](C)N(c2cc(C(=O)O)c4ccn(C)c4c2)C3=O)cc(C)c1Cl [I-160, (R)-6-(7-chloro-10-(3-(4-chloro-3,5-dimethylphenoxy)propyl)-3-methyl-1-oxo-6-(1,3,5-trimethyl-1H-pyrazol-4-yl)-3,4-dihydropyrazino[1,2-a]indol-2(1H)-yl)-1-methyl-1H-indole-4-carboxylic acid] | < 50 nM | –
5 | Cc1cc(OCCCc2c3n(c4c(-c5c(C)nn(C)c5C)cccc24)CCCN(Cc2cc(Br)cc(C(=O)O)c2)C3=O)cc(C)c1Cl [I-296, 3-bromo-5-((11-(3-(4-chloro-3,5-dimethylphenoxy)propyl)-1-oxo-7-(1,3,5-trimethyl-1H-pyrazol-4-yl)-4,5-dihydro-1H-[1,4]diazepino[1,2-a]indol-2(3H)-yl)methyl)benzoic acid] | 51 to 100 nM | –
6 | Cc1cc(OCCCc2c3n(c4c(-c5c(C)nn(C)c5C)c(Cl)ccc24)CCCN(c2cc(Br)cc(C(=O)O)c2)C3=O)cc(C)c1Cl [I-218, 3-bromo-5-(8-chloro-11-(3-(4-chloro-3,5-dimethylphenoxy)propyl)-1-oxo-7-(1,3,5-trimethyl-1H-pyrazol-4-yl)-4,5-dihydro-1H-[1,4]diazepino[1,2-a]indol-2(3H)-yl)benzoic acid] | < 50 nM | –
7 | CCOC(=O)c1ccc(CNC(=O)c2[nH]c3c(-c4c(C)n[nH]c4C)cccc3c2CCCOc2cc(C)c(Cl)c(C)c2)o1 [I-61, ethyl 5-((3-(3-(4-chloro-3,5-dimethylphenoxy)propyl)-7-(3,5-dimethyl-1H-pyrazol-4-yl)-1H-indole-2-carboxamido)methyl)furan-2-carboxylate] | – | 10000 to 50000 nM
8 | Cc1ccc(N2CCCn3c(c(CCCOc4cc(C)c(Cl)c(C)c4)c4ccc(Cl)c(-c5c(C)nn(C)c5C)c43)C2=O)cc1C(=O)O [I-98, 5-(8-chloro-11-(3-(4-chloro-3,5-dimethylphenoxy)propyl)-1-oxo-7-(1,3,5-trimethyl-1H-pyrazol-4-yl)-4,5-dihydro-1H-[1,4]diazepino[1,2-a]indol-2(3H)-yl)-2-methylbenzoic acid] | < 50 nM | –
9 | Cc1cc(OCCCc2c3n(c4c(-c5c(C)nn(C)c5C)c(Cl)ccc24)C[C@@H](C)N(Cc2ccc(C(=O)O)cc2)C3=O)cc(C)c1Cl [I-120, (R)-4-((7-chloro-10-(3-(4-chloro-3,5-dimethylphenoxy)propyl)-3-methyl-1-oxo-6-(1,3,5-trimethyl-1H-pyrazol-4-yl)-3,4-dihydropyrazino[1,2-a]indol-2(1H)-yl)methyl)benzoic acid] | < 50 nM | –
